Counter-ions that a name gives are not always drawn. Where only a bound is given, the exact number is not on record here.

For the experiment, the target named is T1, human PAR-2 (hPAR-2) receptor (Homo sapiens, UniProt P55085).
T1 construct: expressed in HEK-293 cells in an endogenous manner; endogenous in cells; host or cells: HEK-293
T1 sequence (P55085 26-397): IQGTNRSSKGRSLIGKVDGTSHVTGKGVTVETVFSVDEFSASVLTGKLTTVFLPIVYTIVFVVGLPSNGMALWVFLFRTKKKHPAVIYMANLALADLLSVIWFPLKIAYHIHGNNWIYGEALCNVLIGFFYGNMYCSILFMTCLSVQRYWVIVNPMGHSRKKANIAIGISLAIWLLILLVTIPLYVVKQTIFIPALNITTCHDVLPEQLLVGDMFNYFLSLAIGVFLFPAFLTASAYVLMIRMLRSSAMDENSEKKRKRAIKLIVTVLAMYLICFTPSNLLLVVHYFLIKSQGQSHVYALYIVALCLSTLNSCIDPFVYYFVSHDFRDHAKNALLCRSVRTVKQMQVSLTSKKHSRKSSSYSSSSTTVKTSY
Briefly: In vitro human PAR-2 functional antagonist activity using calcium assays. In kind it is cell-based. As to conditions: hPAR-2 endogenously expressed in HEK-293 cells; stimulated by 2-Furoyl-LIGRLO-NH2 peptide; Fluo4AM intracellular calcium, FLIPR Tetra. The procedure, abridged: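 Antagonism was measured as reduced calcium response to 2-Furoyl-LIGRLO-NH2 (dosed at its 80%-of-maximum concentration), recorded for 5 min. This followed a 10 min compound pre-incubation on Fluo4AM-loaded HEK-293 cells expressing native hPAR-2. Signals were normalised to buffer and agonist-alone controls.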
For orientation: Calcium assays in cells follow changes in intracellular calcium, usually with a dye or a luminescent sensor.
Turning to `CC1(C)CN(c2ccc(Cl)c(F)c2)c2ccc(C(=O)N3CCN(c4ccc(CC(=O)O)cn4)CC3(C)C)nc21` [Example 65, 2-(6-(4-(1-(4-chloro-3-fluorophenyl)-3,3-dimethyl-2,3-dihydro-1H-pyrrolo[3,2-b]pyridine-5-carbonyl)-3,3-dimethylpiperazin-1-yl)pyridin-3-yl)acetic acid], the IC50 was less than 500 nM. Next, `CC1(C)CN(c2ccc(Cl)c(F)c2)c2ccc(C(=O)N3CCN(c4nncs4)CC3(C)C)nc21` [Example 67, (1-(4-chloro-3-fluorophenyl)-3,3-dimethyl-2,3-dihydro-1H-pyrrolo[3,2-b]pyridin-5-yl)(2,2-dimethyl-4-(1,3,4-thiadiazol-2-yl)piperazin-1-yl)methanone]: less than 500 nM; `Cc1nc(N2CCN(C(=O)c3ccc4c(n3)C(C)(C)CN4c3ccc(Cl)c(F)c3)C(C)(C)C2)sc1C(=O)O` [Example 69, 2-(4-(1-(4-chloro-3-fluorophenyl)-3,3-dimethyl-2,3-dihydro-1H-pyrrolo[3,2-b]pyridine-5-carbonyl)-3,3-dimethylpiperazin-1-yl)-4-methylthiazole-5-carboxylic acid]: less than 500 nM; `Cc1nc(N2CCN(C(=O)c3ccc4c(n3)C(C)(C)CN4c3ccc(Cl)c(F)c3)C(C)(C)C2)sc1CC(=O)O` [Example 71, 2-(2-(4-(1-(4-chloro-3-fluorophenyl)-3,3-dimethyl-2,3-dihydro-1H-pyrrolo[3,2-b]pyridine-5-carbonyl)-3,3-dimethylpiperazin-1-yl)-4-methylthiazol-5-yl)acetic acid]: less than 500 nM.

In the case of `Cc1sc(N2CCN(C(=O)c3ccc4c(n3)C(C)(C)CN4c3ccc(Cl)c(F)c3)C(C)(C)C2)nc1C(=O)O` [Example 73, 2-(4-(1-(4-chloro-3-fluorophenyl)-3,3-dimethyl-2,3-dihydro-1H-pyrrolo[3,2-b]pyridine-5-carbonyl)-3,3-dimethylpiperazin-1-yl)-5-methylthiazole-4-carboxylic acid hydrochloride], the IC50 is less than 500 nM. In the case of `CC1(C)CN(c2ccc(Cl)c(F)c2)c2ccc(C(=O)N3CCNC(=O)CC3(C)C)nc21` [Example 74, 1-(1-(4-chloro-3-fluorophenyl)-3,3-dimethyl-2,3-dihydro-1H-pyrrolo[3,2-b]pyridine-5-carbonyl)-7,7-dimethyl-1,4-diazepan-5-one], the IC50 was less than 500 nM. As to `CC1(C)CN(c2ccc(Cl)c(F)c2)c2ccc(C(=O)N3CCC4(CCNC4=O)CC3)nc21` [Example 75, 8-(1-(4-chloro-3-fluorophenyl)-3,3-dimethyl-2,3-dihydro-1H-pyrrolo[3,2-b]pyridine-5-carbonyl)-2,8-diazaspiro[4.5]decan-1-one], the IC50 was 500 to 10000 nM. The value for `CC1(C)CN(c2ccc(Cl)c(F)c2)c2ccc(C(=O)N3CCC4(CC3)CNC(=O)C4)nc21` [Example 76, 8-(1-(4-chloro-3-fluorophenyl)-3,3-dimethyl-2,3-dihydro-1H-pyrrolo[3,2-b]pyridine-5-carbonyl)-2,8-diazaspiro[4.5]decan-3-one] was 500 to 10000 nM; that for `CC1(C)CN(c2ccc(Cl)c(F)c2)c2ccc(C(=O)N3CCC(N4CCNC4=O)CC3)nc21` [Example 77, 1-(1-(1-(4-chloro-3-fluorophenyl)-3,3-dimethyl-2,3-dihydro-1H-pyrrolo[3,2-b]pyridine-5-carbonyl)piperidin-4-yl)imidazolidin-2-one] was 500 to 10000 nM; that for `CC1(C)CN(c2ccc(Cl)c(F)c2)c2ccc(C(=O)N3CCN(c4nc(C(F)(F)F)c(C(=O)O)s4)CC3(C)C)nc21` [Example 79, 2-(4-(1-(4-chloro-3-fluorophenyl)-3,3-dimethyl-2,3-dihydro-1H-pyrrolo[3,2-b]pyridine-5-carbonyl)-3,3-dimethylpiperazin-1-yl)-4-(trifluoromethyl)thiazole-5-carboxylic acid] was less than 500 nM. With `CN(C)C(=O)c1csc(N2CCN(C(=O)c3ccc4c(n3)C(C)(C)CN4c3ccc(Cl)c(F)c3)C(C)(C)C2)n1` [Example 80, 2-(4-(1-(4-chloro-3-fluorophenyl)-3,3-dimethyl-2,3-dihydro-1H-pyrrolo[3,2-b]pyridine-5-carbonyl)-3,3-dimethylpiperazin-1-yl)-N,N-dimethylthiazole-4-carboxamide], the IC50 is less than 500 nM. The value for `CC1(C)CN(c2ccc(Cl)c(F)c2)c2ccc(C(=O)N3CCN(c4nc(C(=O)N5CCC(O)CC5)cs4)CC3(C)C)nc21` [Example 81, (1-(4-chloro-3-fluorophenyl)-3,3-dimethyl-2,3-dihydro-1H-pyrrolo[3,2-b]pyridin-5-yl)(4-(4-(4-hydroxypiperidine-1-carbonyl)thiazol-2-yl)-2,2-dimethylpiperazin-1-yl)methanone] was less than 500 nM; that for `CC1(C)CN(c2ccc(Cl)c(F)c2)c2ccc(C(=O)N3CCN(c4nc(C(=O)N5CCOCC5)cs4)CC3(C)C)nc21` [Example 82, (1-(4-chloro-3-fluorophenyl)-3,3-dimethyl-2,3-dihydro-1H-pyrrolo[3,2-b]pyridin-5-yl)(2,2-dimethyl-4-(4-(morpholine-4-carbonyl)thiazol-2-yl)piperazin-1-yl)methanone] was less than 500 nM; that for `CC1(C)CN(c2ccc(Cl)c(F)c2)c2ccc(C(=O)N3CCN(c4nc(C(N)=O)cs4)CC3(C)C)nc21` [Example 83, 2-(4-(1-(4-chloro-3-fluorophenyl)-3,3-dimethyl-2,3-dihydro-1H-pyrrolo[3,2-b]pyridine-5-carbonyl)-3,3-dimethylpiperazin-1-yl)thiazole-4-carboxamide] was less than 500 nM. For the compound `Cc1ccc(N2CC(C)(C)c3nc(C(=O)N4CCN(c5cc(C)c(C(=O)O)c(C)n5)CC4(C)C)ccc32)cc1F` [Example 85, 6-(4-(1-(3-fluoro-4-methylphenyl)-3,3-dimethyl-2,3-dihydro-1H-pyrrolo[3,2-b]pyridine-5-carbonyl)-3,3-dimethylpiperazin-1-yl)-2,4-dimethylnicotinic acid], the concentration for half-maximal inhibition (IC50) is less than 500 nM. On to `Cc1cc(N2CCN(C(=O)c3ccc4c(n3)OC(C)(C)CN(c3ccc(Cl)c(F)c3)C4)C(C)(C)C2)nc(C)c1C(=O)O` [Example 87, 6-(4-(4-(4-chloro-3-fluorophenyl)-2,2-dimethyl-2,3,4,5-tetrahydropyrido[3,2-f][1,4]oxazepine-8-carbonyl)-3,3-dimethylpiperazin-1-yl)-2,4-dimethylnicotinic acid], for which the IC50 is greater than 10000 nM. Next, `Cc1cc(N2CCN(C(=O)c3ccc4c(n3)C3(CN4c4ccc(Cl)c(F)c4)CC(F)(F)C3)C(C)(C)C2)nc(C)c1C(=O)O` [Example 89, 6-(4-(1′-(4-chloro-3-fluorophenyl)-3,3-difluoro-1′,2′-dihydrospiro[cyclobutane-1,3′-pyrrolo[3,2-b]pyridine]-5′-carbonyl)-3,3-dimethylpiperazin-1-yl)-2,4-dimethylnicotinic acid]: less than 500 nM; `Cc1cc(N2CCN(C(=O)c3ccc4c(n3)C3(C=C(F)C3)CN4c3ccc(Cl)c(F)c3)C(C)(C)C2)nc(C)c1C(=O)O` (centres unmarked) [Example 90, 6-(4-(1′-(4-chloro-3-fluorophenyl)-3-fluoro-1′,2′-dihydrospiro[cyclobutane-1,3′-pyrrolo[3,2-b]pyridin]-2-en-5′-carbonyl)-3,3-dimethylpiperazin-1-yl)-2,4-dimethylnicotinic acid]: less than 500 nM; `CO[C@@H]1CN(C(=O)c2ccc3c(n2)C(C)(C)CN3c2ccc(Cl)c(F)c2)CC[C@H]1CC(=O)O` [Example 92, 2-((3S,4S)-1-(1-(4-chloro-3-fluorophenyl)-3,3-dimethyl-2,3-dihydro-1H-pyrrolo[3,2-b]pyridine-5-carbonyl)-3-methoxypiperidin-4-yl)acetic acid]: 500 to 10000 nM. The value for `CO[C@H]1CN(C(=O)c2ccc3c(n2)C(C)(C)CN3c2ccc(Cl)c(F)c2)CC[C@@H]1CC(=O)O` [Example 94, 2-((3R,4R)-1-(1-(4-chloro-3-fluorophenyl)-3,3-dimethyl-2,3-dihydro-1H-pyrrolo[3,2-b]pyridine-5-carbonyl)-3-methoxypiperidin-4-yl)acetic acid] was 500 to 10000 nM; that for `CO[C@@H]1CN(C(=O)c2ccc3c(n2)C(C)(C)CN3c2ccc(Cl)c(F)c2)CC[C@@H]1CC(=O)O` [Example 98, 2-((3S,4R)-1-(1-(4-chloro-3-fluorophenyl)-3,3-dimethyl-2,3-dihydro-1H-pyrrolo[3,2-b]pyridine-5-carbonyl)-3-methoxypiperidin-4-yl)acetic acid] was 500 to 10000 nM. On to `Cc1cc(N2CCN(C(=O)c3cnc4c(n3)C(C)(C)CN4c3ccc(Cl)c(F)c3)C(C)(C)C2)nc(C)c1C(=O)O` [Example 100, 6-(4-(5-(4-chloro-3-fluorophenyl)-7,7-dimethyl-6,7-dihydro-5H-pyrrolo[2,3-b]pyrazine-2-carbonyl)-3,3-dimethylpiperazin-1-yl)-2,4-dimethylnicotinic acid], for which the IC50 was less than 500 nM. Consider `CN1CCN(C(=O)c2csc(N3CCN(C(=O)c4ccc5c(n4)C(C)(C)CN5c4ccc(Cl)c(F)c4)C(C)(C)C3)n2)CC1` [Example 101, (1-(4-chloro-3-fluorophenyl)-3,3-dimethyl-2,3-dihydro-1H-pyrrolo[3,2-b]pyridin-5-yl)(2,2-dimethyl-4-(4-(4-methylpiperazine-1-carbonyl)thiazol-2-yl)piperazin-1-yl)methanone hydrochloride], for which the IC50 is less than 500 nM.

What is called IC50 is the concentration that gives 50% inhibition.
